Results taken from patent US7268157B2, “Substituted arylalcanoic acid derivatives as PPAR pan agonists with potent antihyperglycemic and antihyperlipidemic activity” (Shenzhen Chipscreen Biosciences, Ltd., priority 2002, dated 2007).

How the values were obtained:
[1] = Body weight and abdomen fat weight in experimental obese rats; format: in vivo, rat; conditions: for Abdomen Fat Weight: 15-day treatment
[2] = test system: obese rat; assay: Blood triglyceride and cholesterol in experimental obese rats; format: in vivo; conditions: 13-day treatment

| SMILES | Body Weight ([1]; 4 mg/kg, 0 day) | Abdomen Fat Weight ([1]; 4 mg/kg) | Body Weight ([1]; 4 mg/kg, 6 days) | Body Weight ([1]; 4 mg/kg, 9 days) | Body Weight ([1]; 4 mg/kg, 15 days) | Body Weight ([1]; 30 mg/kg, 0 day) | Abdomen Fat Weight ([1]; 30 mg/kg) | Body Weight ([1]; 30 mg/kg, 6 days) | Body Weight ([1]; 30 mg/kg, 9 days) | Body Weight ([1]; 30 mg/kg, 15 days) | body weight and abdomen fat increases ([1]; after 15-day drug treatment) | Cholesterol ([2]; 4 mg/kg) | Triglyceride ([2]; 4 mg/kg) | Cholesterol ([2]; 30 mg/kg) | Triglyceride ([2]; 30 mg/kg) |
| --- | --- | --- | --- | --- | --- | --- | --- | --- | --- | --- | --- | --- | --- | --- | --- |
| O=C(c1ccc(F)cc1)c1ccccc1NC(Cc1ccc(OCCn2c3ccccc3c3ccccc32)cc1)C(=O)O (stereo not shown) [CS-038, 2-[(2-(4-fluorobenzoyl)phenyl)amino]-3-[4-(2-carbazolylethoxy)-phenyl]-propionic acid] | 591.5 ± 130.0 g | 55.8 ± 16.8 g | 580.8 ± 130.2 g | 575.2 ± 130.6 g | 569.4 ± 122.9 g | 580.5 ± 134.9 g | 56.6 ± 21.1 g | 586.1 ± 143.2 g | 586.5 ± 144.2 g | 578.3 ± 176.8 g | does not induce body weight and abdomen fat increases | 98.4 ± 29.4 mg/dL | 150.3 ± 52.1 mg/dL | 86.6 ± 37.7 mg/dL | 143.2 ± 61.8 mg/dL |
| CN(CCOc1ccc(CC2SC(=O)NC2=O)cc1)c1ccccn1 (stereo not shown) [Rosiglitazone, reference compound] | 594.9 ± 169.3 g | 63.1 ± 31.4 g | 604.5 ± 181.4 g | 601.6 ± 183.9 g | 596.4 ± 176.8 g |  |  |  |  |  |  | 112.7 ± 25.5 mg/dL | 273.3 ± 87.4 mg/dL |  |  |
